Results published in ChEMBL document CHEMBL1201862, “PubChem BioAssay data set” (2004).
Active and inactive are the calls of the source.

Key:
Caspase-6 = target: T1, Caspase-6 (Homo sapiens, UniProt P55212); assay: human caspase-6 inhibitors, dose response, biochemical, VEID-R110 fluorescence, cherry-pick (AID 720632)
T1 sequence (P55212 whole entry): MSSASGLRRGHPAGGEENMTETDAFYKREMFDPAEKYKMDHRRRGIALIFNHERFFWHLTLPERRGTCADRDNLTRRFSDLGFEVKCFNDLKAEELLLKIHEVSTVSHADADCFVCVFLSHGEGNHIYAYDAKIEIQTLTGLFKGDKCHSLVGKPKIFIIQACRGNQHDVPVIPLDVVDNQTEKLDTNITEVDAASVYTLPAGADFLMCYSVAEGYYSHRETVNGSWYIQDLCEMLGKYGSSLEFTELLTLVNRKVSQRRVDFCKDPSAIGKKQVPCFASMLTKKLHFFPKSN

Mu-type opioid receptor = Mu-type opioid receptor (Homo sapiens, UniProt P35372); assay type: functional, cell-based;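 note: U2OS cells with beta-arrestin recruitment to OPRM1 by beta-gal complementation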
[1] = target: 5-hydroxytryptamine receptor 2A (Mus musculus, UniProt P35363); assay type: functional, cell-based;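 note: CHO-K1 cells with tagged receptor and beta-arrestin; agonist potency measured as compound-induced activation of the receptor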
[2] = target: T2, Heat shock factor protein 1 (Mus musculus, UniProt P38532); assay: inhibition of MG132-induced HSE-luciferase signal, confirmation, cell-based, NIH3T3, luminescence, dose retest (AID 2382); assay type: functional;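 note: NIH3T3 fibroblasts with HSF1-driven luciferase reporter stressed by proteasome inhibitor MG132; luminescence from HSF1-driven luciferase expression after 8 hours of MG132 stress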
T2 sequence (P38532 whole entry): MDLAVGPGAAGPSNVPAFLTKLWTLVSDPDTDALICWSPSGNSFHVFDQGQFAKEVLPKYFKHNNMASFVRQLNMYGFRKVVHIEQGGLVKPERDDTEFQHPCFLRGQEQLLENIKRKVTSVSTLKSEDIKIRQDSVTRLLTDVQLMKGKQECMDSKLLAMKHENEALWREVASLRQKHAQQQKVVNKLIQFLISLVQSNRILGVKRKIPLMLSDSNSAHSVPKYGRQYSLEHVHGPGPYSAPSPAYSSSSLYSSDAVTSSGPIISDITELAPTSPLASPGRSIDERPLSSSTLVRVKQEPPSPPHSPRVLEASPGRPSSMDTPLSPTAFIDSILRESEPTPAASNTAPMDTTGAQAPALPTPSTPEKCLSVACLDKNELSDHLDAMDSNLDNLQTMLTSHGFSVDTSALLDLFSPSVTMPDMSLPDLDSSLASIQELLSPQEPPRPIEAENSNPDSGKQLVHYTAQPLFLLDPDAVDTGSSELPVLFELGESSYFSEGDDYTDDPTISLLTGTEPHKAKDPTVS

[3] = Counterscreen for activators of the function of SWI/SNF related, matrix associated, actin dependent regulator of chromatin, subfamily a, member 2 (SMARCA2, BRM): Luminescence-based cell-based high throughput dose response assay to identify non-selective compounds using the VP16 reporter assay.; assay type: functional
H9c2 = assay: cells; assay type: functional, cell-based; conditions: Rattus norvegicus, H9c2, Myocardium;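 note: confirmatory concentration-response retest of ultra-high-throughput screening hits for modulation of myocardial damage; cell death induced by hydrogen peroxide oxidative stress; compound pretreatment for 60 min then peroxide exposure for 2 h; potency is for protecting the cells against peroxide damage rather than for killing them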
Paired box protein Pax-8 = Paired box protein Pax-8 (Homo sapiens, UniProt Q06710); assay: inhibitors of PAX8-driven TPO luciferase reporter, dose response, RMG-I cells, cherry-pick (AID 687027); assay type: functional, cell-based;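 note: luciferase reporter driven by Pax8 target thyroperoxidase promoter measured by SteadyGlo luminescence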
Vero [4] = assay: cells; assay type: functional; conditions: Chlorocebus sabaeus
[5] = target: SWI/SNF-related matrix-associated actin-dependent regulator of chromatin subfamily A member 2 (Homo sapiens, UniProt P51531); assay: Luminescence-based cell-based high throughput dose response assay to identify activators of the function of SWI/SNF related, matrix associated, actin dependent regulator of chromatin, subfamily a, member 2 (SMARCA2, BRM).; assay type: functional
[6] = target: T3, Polyadenylate-binding protein 1 (Homo sapiens, UniProt P11940); assay: PABP1 MLLE–PAM2 interaction inhibitors, dose response, miRNA deadenylation inhibitor project, biochemical, fluorescence polarization, Cy5-PAM2 peptide, secondary (AID 602260); assay type: functional; conditions: read-out: IC50_Mean
[7] = NIH-3T3 fibroblast cytotoxicity, dose response, cytotoxicity control, cell-based, fluorescence, Alamar Blue, secondary assay (AID 2327); assay type: functional;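 note: NIH-3T3 mouse fibroblasts cultured with fluconazole at 8 µg/mL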
[8] = target: T4, Serine/threonine-protein phosphatase (Candida dubliniensis (strain CD36 / CBS 7987 / NCPF 3949 / NRRLY-17841) (Yeast), UniProt B9W6M3); assay: calcineurin pathway inhibitors in yeast reporter, dose response, S. cerevisiae, CDRE-lacZ, luminescence, secondary (AID 2388); assay type: functional, cell-based;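 note: yeast reporter cells carrying a calcineurin-responsive lacZ construct stimulated with calcium chloride; luminescent beta-galactosidase reporter signal in whole cells rather than isolated phosphatase activity; potency for inhibition where a drop in reporter signal means calcineurin blockade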
T4 sequence (B9W6M3 whole entry): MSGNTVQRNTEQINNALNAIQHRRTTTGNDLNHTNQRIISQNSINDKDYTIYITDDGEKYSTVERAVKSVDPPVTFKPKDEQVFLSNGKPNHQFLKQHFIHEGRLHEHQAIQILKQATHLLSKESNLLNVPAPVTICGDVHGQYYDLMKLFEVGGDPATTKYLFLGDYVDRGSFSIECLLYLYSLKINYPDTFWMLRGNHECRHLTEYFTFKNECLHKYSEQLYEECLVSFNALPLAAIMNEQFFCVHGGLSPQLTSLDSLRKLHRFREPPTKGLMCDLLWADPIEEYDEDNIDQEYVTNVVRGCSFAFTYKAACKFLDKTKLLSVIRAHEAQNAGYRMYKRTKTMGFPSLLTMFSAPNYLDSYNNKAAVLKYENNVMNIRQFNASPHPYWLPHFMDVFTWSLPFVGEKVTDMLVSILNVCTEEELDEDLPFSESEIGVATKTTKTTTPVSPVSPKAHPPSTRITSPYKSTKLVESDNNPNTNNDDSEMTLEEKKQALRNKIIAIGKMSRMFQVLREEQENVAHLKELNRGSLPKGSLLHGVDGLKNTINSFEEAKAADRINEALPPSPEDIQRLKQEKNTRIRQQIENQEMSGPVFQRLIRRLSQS

[9] = target: T5, Rac GTPase-activating protein 1 (Homo sapiens, UniProt Q9H0H5); assay: MgcRacGAP GTPase-activating activity inhibitors, confirmation, biochemical, ADP Hunter fluorescence, primary and confirmatory (AID 624330); assay type: functional
T5 sequence (Q9H0H5 whole entry): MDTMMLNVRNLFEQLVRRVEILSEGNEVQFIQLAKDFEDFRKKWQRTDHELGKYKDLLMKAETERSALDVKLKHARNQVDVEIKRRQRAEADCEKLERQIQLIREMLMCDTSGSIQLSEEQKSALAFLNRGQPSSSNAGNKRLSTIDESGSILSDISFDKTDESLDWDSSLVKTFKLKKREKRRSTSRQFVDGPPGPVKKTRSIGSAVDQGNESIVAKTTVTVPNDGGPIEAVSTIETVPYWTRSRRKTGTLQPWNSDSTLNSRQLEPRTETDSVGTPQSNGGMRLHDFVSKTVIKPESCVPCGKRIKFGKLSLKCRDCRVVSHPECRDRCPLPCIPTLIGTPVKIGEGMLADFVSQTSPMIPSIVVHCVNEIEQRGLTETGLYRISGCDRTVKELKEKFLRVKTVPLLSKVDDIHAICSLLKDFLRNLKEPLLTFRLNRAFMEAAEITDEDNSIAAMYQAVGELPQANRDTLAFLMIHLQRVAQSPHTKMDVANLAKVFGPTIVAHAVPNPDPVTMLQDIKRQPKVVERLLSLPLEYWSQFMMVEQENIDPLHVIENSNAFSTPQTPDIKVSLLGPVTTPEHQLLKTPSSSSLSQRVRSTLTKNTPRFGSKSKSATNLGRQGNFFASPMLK

[10] = target: ATP-dependent molecular chaperone HSP82 (Candida albicans (strain WO-1) (Yeast), UniProt C4YTQ8); assay: loss of DOC-induced GRE-beta-galactosidase reporter signal, dose response, Hsp90 inhibitor project, S. cerevisiae, luminescence (AID 2400); assay type: functional, cell-based;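 note: beta-galactosidase luminescence from glucocorticoid response element reporter as proxy for Hsp90 function; inhibitor potency where signal loss means Hsp90 inhibition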
[11] = C. albicans growth with fluconazole, confirmation, fluorescence, retest (AID 2467); assay type: functional, cell-based
[12] = target: T3, Polyadenylate-binding protein 1; assay: PABP1 MLLE–PAM2 binding inhibitor potency, dose response, biochemical, fluorescence polarization, FITC-PAM2 peptide (AID 602259); assay type: functional; conditions: read-out: IC50_Mean
[13] = target: T6, Carboxy-terminal domain RNA polymerase II polypeptide A small phosphatase 1 (Homo sapiens, UniProt Q9GZU7); assay: inhibitors of CTDSP1, concentration-response testing, biochemical assay, absorbance-based, actives from ultra-high-throughput screening (AID 540297); assay type: functional
T6 sequence (Q9GZU7 whole entry): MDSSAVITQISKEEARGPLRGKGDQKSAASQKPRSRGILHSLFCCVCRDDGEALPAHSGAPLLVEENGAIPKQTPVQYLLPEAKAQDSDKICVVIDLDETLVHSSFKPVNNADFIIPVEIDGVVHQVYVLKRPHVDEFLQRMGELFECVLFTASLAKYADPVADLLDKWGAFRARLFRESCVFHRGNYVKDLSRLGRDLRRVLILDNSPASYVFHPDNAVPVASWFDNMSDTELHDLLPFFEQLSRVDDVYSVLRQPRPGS

Beta-lactamase [14] = target: T7, Beta-lactamase (Pseudomonas aeruginosa, UniProt Q79MP6); assay: IMP-1 metallo-beta-lactamase inhibitors, dose response, selectivity assay for VIM-2 inhibitor project, biochemical, epi-absorbance (AID 1920)
Beta-lactamase [15] = target: T7, Beta-lactamase; assay: […] counterscreen for selective VIM-2 inhibitors: dose response biochemical high throughput screening assay to identify inhibitors of IMP-1 metallo-beta-lactamase.
Beta-lactamase [16] = target: Beta-lactamase (Salmonella choleraesuis (strain SC-B67), UniProt Q5J463); assay: Epi-absorbance-based counterscreen for selective VIM-2 inhibitors: dose response biochemical high throughput screening assay to identify inhibitors of TEM-1 serine-beta-lactamase.
[17] = non-specific cell cytotoxicity, dose response, cytotoxicity control for PAX8 inhibitor project, plate reader, dry powder samples (AID 743021); assay type: functional, cell-based
Genome polyprotein = Genome polyprotein (dengue virus type 2, UniProt P29990); assay: Dengue-2 NS5 methyltransferase inhibitors, primary screen, biochemical, confirmation dose response (AID 588689); assay type: functional
Vero [18] = assay: Vero cell cytotoxicity, cytotoxicity control for flavivirus capping enzyme inhibitors (AID 588742); assay type: functional; conditions: Chlorocebus sabaeus
[19] = target: Heat shock protein HSP 90-alpha (Homo sapiens, UniProt P07900); assay type: functional, organism-based
[20] = target: T8, DNA repair protein RAD52 homolog (Homo sapiens, UniProt P43351); assay type: functional, biochemical
T8 sequence (P43351 whole entry): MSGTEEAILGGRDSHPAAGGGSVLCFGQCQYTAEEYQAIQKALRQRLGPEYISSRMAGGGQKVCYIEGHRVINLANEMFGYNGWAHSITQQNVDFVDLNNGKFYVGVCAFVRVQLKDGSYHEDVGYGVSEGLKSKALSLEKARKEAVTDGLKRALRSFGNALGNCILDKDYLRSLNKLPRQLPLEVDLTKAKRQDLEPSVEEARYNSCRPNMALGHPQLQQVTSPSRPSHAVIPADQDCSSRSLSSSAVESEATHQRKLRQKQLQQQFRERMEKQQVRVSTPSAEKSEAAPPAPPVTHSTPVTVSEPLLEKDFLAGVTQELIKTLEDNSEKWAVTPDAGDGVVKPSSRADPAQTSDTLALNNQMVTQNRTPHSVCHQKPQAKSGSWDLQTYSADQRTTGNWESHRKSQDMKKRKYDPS

[21] = HeLa cell cytotoxicity, dose response, cytotoxicity control for MgcRacGAP inhibitor project (AID 624300); assay type: functional
Kallikrein-7 = Kallikrein-7 (Homo sapiens, UniProt P49862); assay: Fluorescence Intensity-based biochemical primary high throughput dose response assay to identify activators of kallikrein-7 (K7) zymogen.
Chain of Kallikrein-7 (P49862 whole entry): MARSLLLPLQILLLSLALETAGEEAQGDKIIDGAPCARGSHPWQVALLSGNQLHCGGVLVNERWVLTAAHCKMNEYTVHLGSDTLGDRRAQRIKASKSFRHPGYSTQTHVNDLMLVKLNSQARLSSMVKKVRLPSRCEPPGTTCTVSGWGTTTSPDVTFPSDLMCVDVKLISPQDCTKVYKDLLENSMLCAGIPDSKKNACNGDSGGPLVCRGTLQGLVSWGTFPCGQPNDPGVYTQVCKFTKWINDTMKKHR

Chain of SWI/SNF-related matrix-associated actin-dependent regulator of chromatin subfamily A member 2 (P51531 whole entry): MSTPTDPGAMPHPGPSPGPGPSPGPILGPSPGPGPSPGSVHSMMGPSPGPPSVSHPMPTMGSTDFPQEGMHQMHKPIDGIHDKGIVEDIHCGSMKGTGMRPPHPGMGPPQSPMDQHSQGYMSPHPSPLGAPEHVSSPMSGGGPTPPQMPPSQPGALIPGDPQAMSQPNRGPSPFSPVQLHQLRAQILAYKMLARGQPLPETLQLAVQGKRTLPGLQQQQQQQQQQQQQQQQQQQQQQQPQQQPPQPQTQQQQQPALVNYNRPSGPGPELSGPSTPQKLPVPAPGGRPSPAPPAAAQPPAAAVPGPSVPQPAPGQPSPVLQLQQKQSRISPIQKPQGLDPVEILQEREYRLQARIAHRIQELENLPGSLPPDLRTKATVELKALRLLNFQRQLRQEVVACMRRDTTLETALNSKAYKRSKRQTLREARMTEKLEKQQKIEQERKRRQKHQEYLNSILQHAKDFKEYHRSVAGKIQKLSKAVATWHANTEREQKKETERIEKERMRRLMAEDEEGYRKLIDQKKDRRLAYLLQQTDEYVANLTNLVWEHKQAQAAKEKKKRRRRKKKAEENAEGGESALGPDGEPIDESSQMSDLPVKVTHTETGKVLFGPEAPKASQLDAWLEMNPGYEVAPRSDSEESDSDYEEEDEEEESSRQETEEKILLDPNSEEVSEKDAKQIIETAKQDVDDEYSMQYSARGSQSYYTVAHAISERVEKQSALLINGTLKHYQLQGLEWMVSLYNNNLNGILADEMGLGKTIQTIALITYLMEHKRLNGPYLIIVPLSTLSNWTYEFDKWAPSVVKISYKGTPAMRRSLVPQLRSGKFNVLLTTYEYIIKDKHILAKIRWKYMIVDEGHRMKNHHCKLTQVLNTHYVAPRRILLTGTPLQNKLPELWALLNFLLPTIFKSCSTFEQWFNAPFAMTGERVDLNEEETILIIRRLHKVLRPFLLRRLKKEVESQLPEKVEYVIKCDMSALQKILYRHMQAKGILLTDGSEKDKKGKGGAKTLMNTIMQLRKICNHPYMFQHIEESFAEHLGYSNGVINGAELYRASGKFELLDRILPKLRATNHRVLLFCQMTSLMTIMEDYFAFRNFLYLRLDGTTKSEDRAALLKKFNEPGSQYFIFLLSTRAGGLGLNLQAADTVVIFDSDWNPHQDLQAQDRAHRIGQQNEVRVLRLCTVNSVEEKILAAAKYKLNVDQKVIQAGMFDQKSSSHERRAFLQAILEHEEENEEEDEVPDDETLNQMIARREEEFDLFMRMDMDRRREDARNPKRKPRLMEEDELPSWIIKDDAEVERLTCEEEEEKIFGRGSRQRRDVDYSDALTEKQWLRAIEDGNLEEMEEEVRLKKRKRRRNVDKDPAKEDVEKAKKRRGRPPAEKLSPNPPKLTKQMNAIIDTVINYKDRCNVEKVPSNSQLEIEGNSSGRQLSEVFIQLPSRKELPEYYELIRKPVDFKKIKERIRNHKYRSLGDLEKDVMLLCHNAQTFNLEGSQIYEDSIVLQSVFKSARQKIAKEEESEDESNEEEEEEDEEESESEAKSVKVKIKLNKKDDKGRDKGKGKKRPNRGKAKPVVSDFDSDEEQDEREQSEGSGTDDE
Chain of Paired box protein Pax-8 (Q06710 whole entry): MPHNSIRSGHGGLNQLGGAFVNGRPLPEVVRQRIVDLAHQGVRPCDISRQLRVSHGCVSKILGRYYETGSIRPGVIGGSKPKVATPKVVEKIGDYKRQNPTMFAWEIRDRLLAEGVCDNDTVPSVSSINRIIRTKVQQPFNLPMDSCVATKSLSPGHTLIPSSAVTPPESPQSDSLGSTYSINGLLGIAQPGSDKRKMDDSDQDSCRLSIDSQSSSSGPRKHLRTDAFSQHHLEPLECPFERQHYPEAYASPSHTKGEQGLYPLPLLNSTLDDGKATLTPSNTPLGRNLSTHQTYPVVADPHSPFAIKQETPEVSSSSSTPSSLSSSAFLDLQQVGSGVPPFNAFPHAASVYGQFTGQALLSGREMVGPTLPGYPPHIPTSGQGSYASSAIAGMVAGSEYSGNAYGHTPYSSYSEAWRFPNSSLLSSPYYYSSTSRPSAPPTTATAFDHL
Chain of Mu-type opioid receptor (P35372 whole entry): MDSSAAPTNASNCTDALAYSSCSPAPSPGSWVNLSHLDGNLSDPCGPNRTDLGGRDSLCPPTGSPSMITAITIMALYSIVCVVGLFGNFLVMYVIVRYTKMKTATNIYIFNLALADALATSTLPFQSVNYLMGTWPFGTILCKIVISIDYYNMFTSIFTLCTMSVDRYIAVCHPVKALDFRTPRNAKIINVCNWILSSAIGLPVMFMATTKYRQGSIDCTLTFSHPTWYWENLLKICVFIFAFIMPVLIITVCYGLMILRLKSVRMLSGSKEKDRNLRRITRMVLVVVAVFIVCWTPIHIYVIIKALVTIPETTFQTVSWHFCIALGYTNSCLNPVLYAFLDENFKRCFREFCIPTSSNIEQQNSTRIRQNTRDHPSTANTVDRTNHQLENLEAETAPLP
Chain of 5-hydroxytryptamine receptor 2A (P35363 whole entry): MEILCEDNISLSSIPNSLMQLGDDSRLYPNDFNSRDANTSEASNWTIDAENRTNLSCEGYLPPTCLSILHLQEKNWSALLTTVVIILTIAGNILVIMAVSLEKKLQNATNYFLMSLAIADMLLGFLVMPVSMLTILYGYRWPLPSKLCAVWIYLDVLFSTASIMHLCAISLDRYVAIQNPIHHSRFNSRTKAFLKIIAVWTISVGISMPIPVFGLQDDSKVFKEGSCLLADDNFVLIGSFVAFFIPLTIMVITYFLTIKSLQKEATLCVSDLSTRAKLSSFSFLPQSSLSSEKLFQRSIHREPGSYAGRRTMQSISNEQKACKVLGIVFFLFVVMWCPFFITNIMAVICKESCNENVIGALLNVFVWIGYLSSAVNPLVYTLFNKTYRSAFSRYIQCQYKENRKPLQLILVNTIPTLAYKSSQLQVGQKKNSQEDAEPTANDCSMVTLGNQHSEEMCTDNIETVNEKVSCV
T7 sequence (Q79MP6 whole entry): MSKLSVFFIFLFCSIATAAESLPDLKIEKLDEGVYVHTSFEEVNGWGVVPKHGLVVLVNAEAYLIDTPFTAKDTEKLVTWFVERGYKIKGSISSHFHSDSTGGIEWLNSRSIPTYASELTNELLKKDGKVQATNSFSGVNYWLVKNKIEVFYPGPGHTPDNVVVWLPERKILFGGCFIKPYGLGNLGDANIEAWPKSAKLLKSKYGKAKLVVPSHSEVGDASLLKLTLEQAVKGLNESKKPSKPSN
T3 sequence (P11940 whole entry): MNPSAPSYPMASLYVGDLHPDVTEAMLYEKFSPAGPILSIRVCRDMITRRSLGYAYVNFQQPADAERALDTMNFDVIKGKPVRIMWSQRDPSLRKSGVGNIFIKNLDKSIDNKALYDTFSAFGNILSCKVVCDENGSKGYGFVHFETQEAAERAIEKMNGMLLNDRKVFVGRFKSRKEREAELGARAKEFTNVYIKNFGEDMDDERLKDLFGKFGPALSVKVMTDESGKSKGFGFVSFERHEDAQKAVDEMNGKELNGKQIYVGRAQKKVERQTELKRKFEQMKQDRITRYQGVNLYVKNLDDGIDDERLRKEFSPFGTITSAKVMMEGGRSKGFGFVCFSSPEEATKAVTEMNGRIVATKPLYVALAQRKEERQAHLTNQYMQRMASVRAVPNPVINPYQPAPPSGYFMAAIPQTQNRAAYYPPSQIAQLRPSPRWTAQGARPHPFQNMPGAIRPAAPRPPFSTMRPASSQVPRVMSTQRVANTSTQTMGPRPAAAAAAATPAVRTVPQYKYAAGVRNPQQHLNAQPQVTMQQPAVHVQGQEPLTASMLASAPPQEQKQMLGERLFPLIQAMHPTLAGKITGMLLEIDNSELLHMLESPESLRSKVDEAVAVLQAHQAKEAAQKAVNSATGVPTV
Chain of ATP-dependent molecular chaperone HSP82 (C4YTQ8 whole entry): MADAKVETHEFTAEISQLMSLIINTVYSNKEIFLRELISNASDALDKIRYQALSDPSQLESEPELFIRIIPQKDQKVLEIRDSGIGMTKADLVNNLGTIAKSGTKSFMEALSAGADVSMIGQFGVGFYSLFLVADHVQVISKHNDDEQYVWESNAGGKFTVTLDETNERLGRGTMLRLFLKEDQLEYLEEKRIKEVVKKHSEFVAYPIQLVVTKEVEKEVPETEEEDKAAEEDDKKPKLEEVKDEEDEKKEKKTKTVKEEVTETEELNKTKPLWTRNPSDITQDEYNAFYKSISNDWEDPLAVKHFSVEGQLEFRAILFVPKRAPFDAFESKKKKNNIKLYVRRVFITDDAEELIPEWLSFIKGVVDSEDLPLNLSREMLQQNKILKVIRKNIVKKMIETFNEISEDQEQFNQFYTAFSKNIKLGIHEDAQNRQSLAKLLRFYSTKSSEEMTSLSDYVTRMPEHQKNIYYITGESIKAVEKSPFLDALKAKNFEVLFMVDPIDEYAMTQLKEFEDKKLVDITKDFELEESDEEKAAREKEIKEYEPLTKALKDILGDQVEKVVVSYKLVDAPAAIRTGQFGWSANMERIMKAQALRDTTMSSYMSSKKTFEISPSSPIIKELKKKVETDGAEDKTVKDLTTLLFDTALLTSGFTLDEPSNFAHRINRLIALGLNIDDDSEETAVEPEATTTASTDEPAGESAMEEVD
Chain of Beta-lactamase (Salmonella choleraesuis (strain SC-B67), UniProt Q5J463) (Q5J463 whole entry): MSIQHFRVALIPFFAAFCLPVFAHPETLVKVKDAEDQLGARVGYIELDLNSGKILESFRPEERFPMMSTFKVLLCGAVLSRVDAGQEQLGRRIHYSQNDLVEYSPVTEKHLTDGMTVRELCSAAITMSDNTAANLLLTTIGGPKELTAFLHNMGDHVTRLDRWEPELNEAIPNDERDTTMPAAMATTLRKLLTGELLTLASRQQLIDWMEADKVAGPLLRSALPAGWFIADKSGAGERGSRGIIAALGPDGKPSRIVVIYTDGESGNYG

Cc1cc(C)cc(NC(=O)Cc2ccc(S(=O)(=O)N3CCCC3)s2)c1
AC50 (Caspase-6): 24.2 µM (active)

O=C1CN(C(=O)COC(=O)c2ccc([N+](=O)[O-])o2)c2ccccc2N1
AC50 (Caspase-6): 15.1 µM (active)

c1ccc(COc2cccc(CN3CCN(c4ccccn4)CC3)c2)cc1
EC50 (Mu-type opioid receptor): 92.5 µM (inactive) | EC50 [1]: 0.022 µM (active) | EC50 [2]: > 195 µM (not active)

NC(=O)c1ccsc1NC(=O)c1ccc([N+](=O)[O-])o1
EC50 [3]: > 91.1 µM (inactive) | IC50 (H9c2): > 79 µM (inactive) | AC50 (Paired box protein Pax-8): 3.8 µM (active) | CC50 (Vero [4]): 11.7 µM (active) | EC50 [5]: > 91.1 µM (inactive)

O=C(NCc1ccco1)c1sc(=S)n2c1[nH]c(=O)c1ccccc12
IC50 [6]: > 66 µM (inactive) | EC50 [7]: > 160 µM (inactive) | EC50 [8]: > 180 µM (inactive) | IC50 [9]: 75.6 µM (active) | EC50 [10]: > 160 µM (inactive) | EC50 [11]: 0.837 µM (active) | IC50 [12]: > 66 µM (inactive)

Nc1cc([N+](=O)[O-])ccc1N1C(=O)CCCC1=O
IC50 [13]: 10.8 µM (active) | AC50 (Caspase-6): 18.3 µM (active)

CCOc1ccc(NC(=O)CCN2CCN(c3ccccc3F)CC2)cc1
EC50 (Mu-type opioid receptor): 92.6 µM (inactive) | EC50 [1]: 0.0925 µM (active)

Nc1nc(-c2ccccc2)nc(O)c1N=O
AC50 (Caspase-6): 11.6 µM (active)

O=C(O)C(NC(=O)c1ccccc1)=C(Cl)Cl
IC50 (Beta-lactamase [14]): > 59.6 µM (inactive) | IC50 (Beta-lactamase [15]): > 59.6 µM (inactive) | IC50 (Beta-lactamase [16]): > 59.6 µM (inactive)

O=C(C(=O)N(Cc1ccccc1)Cc1ccccc1)c1c(-c2ccccc2)[nH]c2ccccc12
AC50 [17]: 44.5 µM (active) | IC50 (H9c2): > 79 µM (inactive) | AC50 (Paired box protein Pax-8): 7.45 µM (active)

Oc1c(Cl)cccc1Cc1cc(Cl)cc(Cl)c1O
IC50 (Genome polyprotein): 45.5 µM (active) | CC50 (Vero [18]): 19.3 µM (active) | AC50 [19]: 3.05 µM (active)

COc1cc2c[n+](C)c3c4ccccc4ccc3c2cc1OC
EC50 [3]: > 91.1 µM (inactive) | AC50 [20]: 0.36 µM (active) | CC50 [21]: 66 µM (active) | IC50 [9]: 60.5 µM (active) | EC50 [5]: > 91.1 µM (inactive)

Nc1nccnc1C(=O)OCc1nc2sc3c(c2c(=O)[nH]1)CCCC3
EC50 (Kallikrein-7): 6.32 µM (active)

CC(C)=CCNc1ncnc2c1c(C#N)cn2C1OC(CO)C(O)C1O (configuration not stated)
EC50 [3]: > 91.1 µM (inactive) | AC50 (Paired box protein Pax-8): 3.79 µM (active) | EC50 [5]: > 91.1 µM (inactive)

CCN(CC)C(=O)N[C@H]1C[C@@H]2c3cccc4[nH]cc(c34)C[C@H]2N(C)C1 [TERGURIDE]
EC50 (Mu-type opioid receptor): 92.5 µM (inactive) | EC50 [1]: 0.0038 µM (active)
